Where a name gives a salt, the structure may show the parent alone. A value given as a limit tells only on which side of the number the result lay.

For this assay, the target named is T1, HiBiT tagged PARP14 (Homo sapiens, UniProt Q460N5).
T1 construct: engineered to contain a HiBiT tag on both alleles of the PARP14 gene; endogenous in cells; host or cells: Jurkat cells stably transfected with LgBiT (Promega), PARP14 locus edited by CRISPR/Cas9
T1 sequence (Q460N5 whole entry): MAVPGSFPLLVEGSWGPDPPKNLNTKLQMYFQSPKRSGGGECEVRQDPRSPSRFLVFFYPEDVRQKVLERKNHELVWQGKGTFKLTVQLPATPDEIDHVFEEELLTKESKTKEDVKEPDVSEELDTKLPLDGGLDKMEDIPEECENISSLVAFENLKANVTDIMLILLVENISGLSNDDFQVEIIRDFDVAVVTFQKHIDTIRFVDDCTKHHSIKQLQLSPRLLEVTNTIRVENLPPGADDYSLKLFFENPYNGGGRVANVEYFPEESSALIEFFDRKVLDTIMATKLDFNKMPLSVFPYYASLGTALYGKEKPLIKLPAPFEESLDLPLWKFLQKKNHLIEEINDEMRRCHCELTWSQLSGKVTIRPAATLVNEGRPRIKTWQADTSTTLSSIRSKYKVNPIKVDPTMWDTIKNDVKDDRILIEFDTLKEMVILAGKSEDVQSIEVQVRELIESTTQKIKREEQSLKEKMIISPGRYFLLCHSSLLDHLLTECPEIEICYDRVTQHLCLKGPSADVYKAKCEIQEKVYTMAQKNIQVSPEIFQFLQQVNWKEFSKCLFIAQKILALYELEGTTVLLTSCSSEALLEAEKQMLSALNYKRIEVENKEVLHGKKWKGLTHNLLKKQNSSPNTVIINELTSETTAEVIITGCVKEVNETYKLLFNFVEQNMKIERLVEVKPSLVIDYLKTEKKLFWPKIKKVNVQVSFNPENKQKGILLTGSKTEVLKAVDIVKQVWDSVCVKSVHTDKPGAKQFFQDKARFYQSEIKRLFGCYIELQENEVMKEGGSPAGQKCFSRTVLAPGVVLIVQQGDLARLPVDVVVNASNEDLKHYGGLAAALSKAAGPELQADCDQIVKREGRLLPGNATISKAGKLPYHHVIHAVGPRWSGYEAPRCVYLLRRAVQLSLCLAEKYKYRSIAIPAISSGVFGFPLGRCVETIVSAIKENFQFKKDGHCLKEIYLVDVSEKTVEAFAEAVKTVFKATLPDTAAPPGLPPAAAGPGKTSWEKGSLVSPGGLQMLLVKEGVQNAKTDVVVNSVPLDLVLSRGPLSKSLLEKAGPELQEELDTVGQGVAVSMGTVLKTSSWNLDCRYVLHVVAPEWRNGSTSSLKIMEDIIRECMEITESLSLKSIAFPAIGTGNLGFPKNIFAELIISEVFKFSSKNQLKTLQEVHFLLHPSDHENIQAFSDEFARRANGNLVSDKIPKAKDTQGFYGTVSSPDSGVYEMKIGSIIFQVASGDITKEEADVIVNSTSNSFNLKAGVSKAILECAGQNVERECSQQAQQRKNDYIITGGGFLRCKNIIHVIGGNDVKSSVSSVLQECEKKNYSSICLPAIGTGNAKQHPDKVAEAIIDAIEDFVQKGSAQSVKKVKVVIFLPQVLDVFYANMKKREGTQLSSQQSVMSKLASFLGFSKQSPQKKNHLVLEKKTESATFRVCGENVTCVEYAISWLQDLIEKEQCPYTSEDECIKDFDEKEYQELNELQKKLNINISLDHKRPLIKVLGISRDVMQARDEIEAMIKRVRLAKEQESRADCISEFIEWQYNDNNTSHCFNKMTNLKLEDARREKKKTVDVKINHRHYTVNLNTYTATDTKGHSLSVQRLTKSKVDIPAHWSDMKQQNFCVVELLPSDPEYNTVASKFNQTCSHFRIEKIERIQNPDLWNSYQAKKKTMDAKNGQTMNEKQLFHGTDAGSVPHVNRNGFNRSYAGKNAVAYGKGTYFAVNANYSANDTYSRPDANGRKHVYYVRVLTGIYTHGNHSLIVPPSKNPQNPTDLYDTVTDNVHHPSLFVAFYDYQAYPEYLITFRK
Description: HiBiT assay for the degradation of PARP14 (HiBiT tagged PARP14 in LgBiT expressing Jurkat cells, 2 or 24 hours). It is filed as cell-based. The note with it: Assay B (Example B): HiBiT tagged PARP14 degradation in LgBiT expressing Jurkat cells, read-out: DC50. The method, boiled down: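 Luminescence from HiBiT–LgBiT complementation served as proxy for endogenous PARP14 level in edited LgBiT Jurkat cells (5,000/well). After 2 or 24 h compound exposure at 37 °C, signal read with Live Cell Substrate, expressed as % of 0.1% DMSO control, and fitted (4-parameter, free Hill) for DC50.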
(The HiBiT peptide binds its large partner to form an active luciferase.)
Regarding `O=C1CCC(Nc2ccc(N3CCC(N4CCC(COc5cc(F)c6c(=O)[nH]c(CC7CC7)nc6c5)CC4)CC3)c(F)c2)C(=O)N1` (centres unmarked) [Example 219, 3-((4-(4-(((2-(cyclopropylmethyl)-5-fluoro-4-oxo-3,4-dihydroquinazolin-7-yl)oxy)methyl)-[1,4′-bipiperidin]-1′-yl)-3-fluorophenyl)amino)piperidine-2,6-dione formate], the half-maximal degradation concentration (DC50) (usually the concentration giving 50% degradation) was less than 30 nM. As for `O=C1CCC(Nc2ccc(N3CCN(CCN4CCC(COc5cc(F)c6c(=O)[nH]c(CCC7CCOCC7)nc6c5)CC4)CC3)c(F)c2)C(=O)N1` (centres unmarked) [Example 100, 3-((3-fluoro-4-(4-(2-(4-(((5-fluoro-4-oxo-2-(2-(tetrahydro-2H-pyran-4-yl)ethyl)-3,4-dihydroquinazolin-7-yl)oxy)methyl)piperidin-1-yl)ethyl)piperazin-1-yl)phenyl)amino)piperidine-2,6-dione], the 50% degradation concentration (DC50) is less than 30 nM. In the case of `O=C1CCC(Nc2ccc(NC3CC(CN4CCC(COc5cc(F)c6c(=O)[nH]c(CSC7CCOCC7)nc6c5)CC4)C3)c(F)c2)C(=O)N1` (centres unmarked) [Example 150, 3-((3-fluoro-4-((3-((4-(((5-fluoro-4-oxo-2-(((tetrahydro-2H-pyran-4-yl)thio)methyl)-3,4-dihydroquinazolin-7-yl)oxy)methyl)piperidin-1-yl)methyl)cyclobutyl)amino)phenyl)amino)piperidine-2,6-dione formate], the half-maximal degradation concentration (DC50) was less than 30 nM. Turning to `O=C1CCC(Nc2ccc(OC3CCC(CN4CCC(COc5cc(F)c6c(=O)[nH]c(CSC7CCOCC7)nc6c5)CC4)CC3)cc2)C(=O)N1` (centres unmarked) [Example 111], the half-maximal degradation concentration (DC50) was less than 30 nM.

Consider `[2H]C1([2H])N(CCN2CCC(COc3cc(F)c4c(=O)[nH]c(CSC5CCOCC5)nc4c3)CC2)C([2H])([2H])C([2H])([2H])N(c2ccc(NC3CCC(=O)NC3=O)cc2)C1([2H])[2H]` (centres unmarked) [Example 131, 3-((4-(4-(2-(4-(((5-fluoro-4-oxo-2-(((tetrahydro-2H-pyran-4-yl)thio)methyl)-3,4-dihydroquinazolin-7-yl)oxy)methyl)piperidin-1-yl)ethyl)piperazin-1-yl-2,2,3,3,5,5,6,6-d8)phenyl)amino)piperidine-2,6-dione], for which the DC50 is less than 30 nM. In the case of `O=C1CCC(Nc2ccc(N3CCC4(CCN(CCOc5cc(F)c6c(=O)[nH]c(CSC7CCOCC7)nc6c5)CC4)CC3)c(F)c2)C(=O)N1` (centres unmarked) [Example 215, 3-((3-fluoro-4-(9-(2-((5-fluoro-4-oxo-2-(((tetrahydro-2H-pyran-4-yl)thio)methyl)-3,4-dihydroquinazolin-7-yl)oxy)ethyl)-3,9-diazaspiro[5.5]undecan-3-yl)phenyl)amino)piperidine-2,6-dione], the DC50 was less than 30 nM. `Cn1nc(N2CCC(=O)NC2=O)c2ccc(N3CCC(N4CC(N5CCC(COc6cc(F)c7c(=O)[nH]c(CSC8CCOCC8)nc7c6)CC5)C4)CC3)cc21` [Example 161, 1-(6-(4-(3-(4-(((5-fluoro-4-oxo-2-(((tetrahydro-2H-pyran-4-yl)thio)methyl)-3,4-dihydroquinazolin-7-yl)oxy)methyl)piperidin-1-yl)azetidin-1-yl)piperidin-1-yl)-1-methyl-1H-indazol-3-yl)dihydropyrimidine-2,4(1H,3H)-dione]: the half-maximal degradation concentration (DC50) is less than 30 nM.

In the case of `O=C1CCC(Nc2ccc(N3CCC(N4CC(N5CCC(CCOc6cc(F)c7c(=O)[nH]c(CSC8CCOCC8)nc7c6)CC5)C4)CC3)c(F)c2)C(=O)N1` (centres unmarked) [Example 235, 3-((3-fluoro-4-(4-(3-(4-(2-((5-fluoro-4-oxo-2-(((tetrahydro-2H-pyran-4-yl)thio)methyl)-3,4-dihydroquinazolin-7-yl)oxy)ethyl)piperidin-1-yl)azetidin-1-yl)piperidin-1-yl)phenyl)amino)piperidine-2,6-dione], the DC50 is less than 30 nM.

(Values after patent US20240101540A1, “TARGETED PROTEIN DEGRADATION OF PARP14 FOR USE IN THERAPY” (Ribon Therapeutics, Inc., priority 2022, published 2024).)
